According to patent publication US10890591B2, “Methods and dose packs for monitoring medication adherence” (Synapse Biosciences, LLC, priority 2016, dated 2021):
Like-named read-outs stand apart in the source and are kept apart here.

Assays:
clinical [1] = conditions: human, in vivo, Urine Results
clinical [2] = conditions: human, in vivo
Source text: (§1) All other markers were obtained from commercial sources. Urine and saliva were collected prior to each day's dosing of marker confirming the presence or absence of markers before the experiment started. […] The presence of all 7 markers at day 8 would confirm that all markers were ingested in the previous 7 day one week period.
(§2) Healthy volunteers with no recent exposure to the markers who were not currently taking prescribed medications, OTC medications or vitamins and supplements were chosen. Exposure to the markers more than one month before starting the experiment was allowed and no dietary restrictions were required. Subjects were given a 7 day blister pack with markers sequenced in the order above. Subjects verbally confirmed they understood the urine and saliva collection procedures. Instructions printed on the marker blister pack instructed subjects to collect urine and saliva each morning before they took the daily dose of marker. They were also instructed to take the daily dose of marker close to the same time each day.

[3] = human, in vivo
clinical [4] = assay: clinical
Source text: as §1, §2

[5] = Multiple Marker Experiment 2: urine samples, simulated non-adherence (one marker dose skipped per subject), LC-MS/MS; conditions: for Subject B, Urine Results / Subject C, Urine Results: collected before that day's dose; for Subject B, Urine Results / Subject C, Urine Results / concentration at 8 day: other markers dosed once; for concentration at 8 day: Urine Results, Day 8 sample
[6] = human, in vivo, Average of Urine Samples
[7] = Day 1 sample, collected before that day's dose, Experiment #1, adherent with all markers, each marker dosed once
[8] = Day 2 sample, collected before that day's dose, Experiment #1, adherent with all markers, each marker dosed once
[9] = Day 3 sample, collected before that day's dose, Experiment #1, adherent with all markers, each marker dosed once
[10] = Day 4 sample, collected before that day's dose, Experiment #1, adherent with all markers, each marker dosed once
[11] = Day 5 sample, collected before that day's dose, Experiment #1, adherent with all markers, each marker dosed once
[12] = Day 6 sample, collected before that day's dose, Experiment #1, adherent with all markers, each marker dosed once
[13] = Day 7 sample, collected before that day's dose, Experiment #1, adherent with all markers, each marker dosed once
[14] = Day 8 sample, Experiment #1, adherent with all markers, each marker dosed once

Structure (SMILES): O=C1O[C@H]([C@@H](O)CO)C(O)=C1O [Ascorbic Acid]
- concentration at 7 day (clinical [1]; Subject A): 2920 ng/mL
- concentration at 1 day (clinical [1]; Subject C): 1870 ng/mL
- concentration at 2 day (clinical [1]; Subject C): 2490 ng/mL
- concentration at 3 day (clinical [1]; Subject C): 4540 ng/mL
- concentration at 4 day (clinical [1]; Subject C): 2520 ng/mL
- concentration at 5 day (clinical [1]; Subject C): 5290 ng/mL
- concentration at 6 day (clinical [1]; Subject C): 1040 ng/mL
- concentration at 7 day (clinical [1]; Subject C): 1840 ng/mL
- concentration at 8 day (clinical [1]; Subject C): 1610 ng/mL
- concentration at 3 day (clinical [1]; Subject D): 4900 ng/mL
- concentration at 4 day (clinical [1]; Subject D): 4930 ng/mL
- concentration at 5 day (clinical [1]; Subject D): 5020 ng/mL
- concentration at 6 day (clinical [1]; Subject D): 4400 ng/mL
- concentration at 8 day (clinical [1]; Subject D): 4320 ng/mL
- concentration at 1 day (clinical [2]): 30.7 ng/mL
- concentration at 2 day (clinical [2]): 33.6 ng/mL
- concentration at 3 day (clinical [2]): 32.8 ng/mL
- concentration at 4 day (clinical [2]): 33.3 ng/mL
- concentration at 5 day (clinical [2]): 23.8 ng/mL
- concentration at 6 day (clinical [2]): 36.2 ng/mL
- concentration at 7 day (clinical [2]): 36.8 ng/mL
- concentration at 8 day (clinical [2]): 27 ng/mL
- course of urine levels relative to dosing [3]: did not differ significantly from baseline levels
- Subject C, Urine Results (clinical [4]; human, in vivo, 1 day): 1290 ng/m
- Subject D, Urine Results (clinical [4]; human, in vivo, 1 day): 4167 ng/m
- Subject C, Urine Results (clinical [4]; human, in vivo, 2 day): 2106 ng/m
- Subject D, Urine Results (clinical [4]; human, in vivo, 2 day): 2789 ng/m
- Subject C, Urine Results (clinical [4]; human, in vivo, 3 day): 1947 ng/m
- Subject D, Urine Results (clinical [4]; human, in vivo, 3 day): 3626 ng/m
- Subject C, Urine Results (clinical [4]; human, in vivo, 4 day): 1892 ng/m
- Subject D, Urine Results (clinical [4]; human, in vivo, 4 day): 3426 ng/m
- Subject C, Urine Results (clinical [4]; human, in vivo, 5 day): 2503 ng/m
- Subject D, Urine Results (clinical [4]; human, in vivo, 5 day): 2268 ng/m
- Subject C, Urine Results (clinical [4]; human, in vivo, 6 day): 1812 ng/m
- Subject D, Urine Results (clinical [4]; human, in vivo, 6 day): 3024 ng/m
- Subject C, Urine Results (clinical [4]; human, in vivo, 7 day): 1751 ng/m
- Subject D, Urine Results (clinical [4]; human, in vivo, 7 day): 3908 ng/m
- Subject C, Urine Results (clinical [4]; human, in vivo, 8 day): 2020 ng/m
- Subject D, Urine Results (clinical [4]; human, in vivo, 8 day): 2894 ng/m
- concentration at 1 day (clinical [4]; [6]): 1960 ng/mL
- concentration at 2 day (clinical [4]; [6]): 2100 ng/mL
- concentration at 3 day (clinical [4]; [6]): 2260 ng/mL
- concentration at 4 day (clinical [4]; [6]): 2660 ng/mL
- concentration at 5 day (clinical [4]; [6]): 2030 ng/mL
- concentration at 6 day (clinical [4]; [6]): 1960 ng/mL
- concentration at 7 day (clinical [4]; [6]): 2560 ng/mL
- concentration at 8 day (clinical [4]; [6]): 2100 ng/mL
- concentration at 7 day (clinical [4]; human, in vivo, Subject A, Urine Results): 2800 ng/mL
- course of urine levels relative to dosing (clinical [4]; in vivo): did not differ significantly from baseline levels

Structure (SMILES): CN(C)C(=O)C(CCN1CCC(O)(c2ccc(Cl)cc2)CC1)(c1ccccc1)c1ccccc1 [Loperamide]
- concentration at 1 day (clinical [2]): 0 ng/mL
- concentration at 2 day (clinical [2]): 0 ng/mL
- concentration at 3 day (clinical [2]): 0.431 ng/mL
- concentration at 4 day (clinical [2]): 0.18 ng/mL
- concentration at 5 day (clinical [2]): 0.257 ng/mL
- concentration at 6 day (clinical [2]): 0.112 ng/mL
- concentration at 7 day (clinical [2]): 0.0922 ng/mL
- concentration at 8 day (clinical [2]): 0.0265 ng/mL
- Subject B, Urine Results ([5]; Day 1 sample, Experiment #2, subject B skipped diphenhydramine on day 5): 0 ng/mL
- Subject C, Urine Results ([5]; Day 1 sample, Experiment #2, subject C skipped Loperamide on day 2): 0 ng/mL
- Subject B, Urine Results ([5]; Day 2 sample, Experiment #2, subject B skipped diphenhydramine on day 5): 0 ng/mL
- Subject C, Urine Results ([5]; Day 2 sample, Experiment #2, subject C skipped Loperamide on day 2): 0 ng/mL
- Subject B, Urine Results ([5]; Day 3 sample, Experiment #2, subject B skipped diphenhydramine on day 5): 209 ng/mL
- Subject C, Urine Results ([5]; Day 3 sample, Experiment #2, subject C skipped Loperamide on day 2): 0 ng/mL
- Subject B, Urine Results ([5]; Day 4 sample, Experiment #2, subject B skipped diphenhydramine on day 5): 101 ng/mL
- Subject C, Urine Results ([5]; Day 4 sample, Experiment #2, subject C skipped Loperamide on day 2): 0 ng/mL
- Subject B, Urine Results ([5]; Day 5 sample, Experiment #2, subject B skipped diphenhydramine on day 5): 32.3 ng/mL
- Subject C, Urine Results ([5]; Day 5 sample, Experiment #2, subject C skipped Loperamide on day 2): 0 ng/mL
- Subject B, Urine Results ([5]; Day 6 sample, Experiment #2, subject B skipped diphenhydramine on day 5): 13.8 ng/mL
- Subject C, Urine Results ([5]; Day 6 sample, Experiment #2, subject C skipped Loperamide on day 2): 0 ng/mL
- Subject B, Urine Results ([5]; Day 7 sample, Experiment #2, subject B skipped diphenhydramine on day 5): 12.8 ng/mL
- Subject C, Urine Results ([5]; Day 7 sample, Experiment #2, subject C skipped Loperamide on day 2): 0 ng/mL
- course of urine levels relative to dosing ([5]; Experiment 2, days 1-8): zero before dosing, peaked the day after dosing and slowly decreased over time
- concentration at 1 day ([5]; human, in vivo): 0 ng/mL
- concentration at 2 day ([5]; human, in vivo): 0 ng/mL
- concentration at 8 day ([5]; human, in vivo, Subject B, Experiment #2, subject B skipped diphenhydramine on day 5): 2.92 ng/mL
- concentration at 8 day ([5]; human, in vivo, Subject C, Experiment #2, subject C skipped Loperamide on day 2): 0 ng/mL
- Subject A, Urine Results (clinical [4]; [7]): 0 ng/mL
- Subject B, Urine Results (clinical [4]; [7]): 0 ng/mL
- Subject C, Urine Results (clinical [4]; [7]): 0 ng/m
- Subject D, Urine Results (clinical [4]; [7]): 0 ng/m
- Subject A, Urine Results (clinical [4]; [8]): 0 ng/mL
- Subject B, Urine Results (clinical [4]; [8]): 0 ng/mL
- Subject C, Urine Results (clinical [4]; [8]): 0 ng/m
- Subject D, Urine Results (clinical [4]; [8]): 0 ng/m
- Subject A, Urine Results (clinical [4]; [9]): 28.4 ng/mL
- Subject B, Urine Results (clinical [4]; [9]): 206 ng/mL
- Subject C, Urine Results (clinical [4]; [9]): 75.2 ng/m
- Subject D, Urine Results (clinical [4]; [9]): 110 ng/m
- Average of Urine Samples (clinical [4]; Day 3 sample, collected before that day's dose, average of subjects A, B, C, D, Experiment 1, each marker dosed once): 104.9 ng/mL
- Subject A, Urine Results (clinical [4]; [10]): 98.4 ng/mL
- Subject B, Urine Results (clinical [4]; [10]): 26.8 ng/mL
- Subject C, Urine Results (clinical [4]; [10]): 23.7 ng/m
- Subject D, Urine Results (clinical [4]; [10]): 100 ng/m
- Average of Urine Samples (clinical [4]; Day 4 sample, collected before that day's dose, average of subjects A, B, C, D, Experiment 1, each marker dosed once): 62.225 ng/mL
- Subject A, Urine Results (clinical [4]; [11]): 31.6 ng/mL
- Subject B, Urine Results (clinical [4]; [11]): 6.94 ng/mL
- Subject C, Urine Results (clinical [4]; [11]): 7.11 ng/m
- Subject D, Urine Results (clinical [4]; [11]): 18.6 ng/m
- Average of Urine Samples (clinical [4]; Day 5 sample, collected before that day's dose, average of subjects A, B, C, D, Experiment 1, each marker dosed once): 16.0625 ng/mL
- Subject A, Urine Results (clinical [4]; [12]): 24.1 ng/mL
- Subject B, Urine Results (clinical [4]; [12]): 5.5 ng/mL
- Subject C, Urine Results (clinical [4]; [12]): 5.02 ng/m
- Subject D, Urine Results (clinical [4]; [12]): 6.37 ng/m
- Average of Urine Samples (clinical [4]; Day 6 sample, collected before that day's dose, average of subjects A, B, C, D, Experiment 1, each marker dosed once): 10.2475 ng/mL
- Subject A, Urine Results (clinical [4]; [13]): 0.035 ng/mL
- Subject B, Urine Results (clinical [4]; [13]): 2.33 ng/mL
- Subject C, Urine Results (clinical [4]; [13]): 2.41 ng/m
- Subject D, Urine Results (clinical [4]; [13]): 5.8 ng/m
- Average of Urine Samples (clinical [4]; Day 7 sample, collected before that day's dose, average of subjects A, B, C, D, Experiment 1, each marker dosed once): 2.644 ng/mL
- Subject C, Urine Results (clinical [4]; [14]): 1.89 ng/m
- Subject D, Urine Results (clinical [4]; [14]): 2.71 ng/m
- course of urine levels relative to dosing (clinical [4]; Experiment 1, days 1-8): zero before dosing, peaked the day after dosing and slowly decreased over time
- concentration at 1 day (clinical [4]; human, in vivo): 0 ng/mL
- concentration at 2 day (clinical [4]; human, in vivo): 0 ng/mL
- concentration at 8 day (clinical [4]; human, in vivo, Average of Urine Samples, Day 8 sample, average of subjects A, B, C, D, Experiment 1, each marker dosed once): 1.18 ng/mL
- concentration at 8 day (clinical [4]; human, in vivo, Subject A, Urine Results, Day 8 sample, Experiment #1, adherent with all markers, each marker dosed once): 0.022 ng/mL
- concentration at 8 day (clinical [4]; human, in vivo, Subject B, Urine Results, Day 8 sample, Experiment #1, adherent with all markers, each marker dosed once): 0.107 ng/mL
